Assay results from ChEMBL document CHEMBL1133517, “Design, radiosynthesis, and biodistribution of a new potent and selective ligand for in vivo imaging of the adenosine A(2A) receptor system using positron emission tomography” (J Med Chem, 2000).
pKi: −log10 of the molar value.

Columns and labels:
[1] = target: T1, Adenosine receptor A2b (Homo sapiens, UniProt P29275); assay: Inhibitory activity against human adenosine A2B receptor expressed in HEK293 cells by displacement of [3H]DPCPX; type: cell-based
T1 sequence (P29275 whole entry): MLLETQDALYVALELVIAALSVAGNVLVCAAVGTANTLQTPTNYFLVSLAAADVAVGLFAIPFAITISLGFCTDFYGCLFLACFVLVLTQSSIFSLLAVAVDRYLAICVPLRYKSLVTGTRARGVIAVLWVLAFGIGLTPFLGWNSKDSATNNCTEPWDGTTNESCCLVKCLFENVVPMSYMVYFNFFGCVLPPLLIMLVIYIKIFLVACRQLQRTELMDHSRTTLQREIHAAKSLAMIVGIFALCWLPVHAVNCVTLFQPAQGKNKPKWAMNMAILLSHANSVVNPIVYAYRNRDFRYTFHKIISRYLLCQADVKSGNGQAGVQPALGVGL

[2] = target: T2, Adenosine receptor A1 (Homo sapiens, UniProt P30542); assay: Inhibitory activity against human adenosine A1 receptor expressed in CHO cells by displacement of [3H]DPCPX; type: cell-based
T2 sequence (P30542 whole entry): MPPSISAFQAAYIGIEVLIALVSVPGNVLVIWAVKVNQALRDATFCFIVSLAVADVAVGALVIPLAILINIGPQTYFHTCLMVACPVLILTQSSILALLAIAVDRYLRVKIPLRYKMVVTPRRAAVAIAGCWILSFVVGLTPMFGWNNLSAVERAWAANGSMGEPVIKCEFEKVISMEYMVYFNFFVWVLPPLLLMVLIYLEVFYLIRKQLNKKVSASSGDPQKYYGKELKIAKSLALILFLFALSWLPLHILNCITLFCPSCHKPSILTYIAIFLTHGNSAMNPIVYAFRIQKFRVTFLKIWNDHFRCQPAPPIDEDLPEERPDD

[3] = target: T3, Adenosine receptor A3 (Rattus norvegicus, UniProt P28647); assay: Inhibitory activity against rat adenosine A3 receptor expressed in HEK293 cells by displacement of [125I]AB-MECA; type: cell-based
T3 sequence (P28647 whole entry): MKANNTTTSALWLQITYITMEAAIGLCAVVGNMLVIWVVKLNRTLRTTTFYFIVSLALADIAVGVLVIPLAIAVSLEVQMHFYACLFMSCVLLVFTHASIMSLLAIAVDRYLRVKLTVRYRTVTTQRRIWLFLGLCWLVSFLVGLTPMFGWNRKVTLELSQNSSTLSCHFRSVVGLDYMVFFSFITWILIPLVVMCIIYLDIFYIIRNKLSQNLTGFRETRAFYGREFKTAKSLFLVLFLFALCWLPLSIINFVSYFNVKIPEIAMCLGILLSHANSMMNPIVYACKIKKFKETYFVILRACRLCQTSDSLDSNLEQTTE

[4] = target: T4, Adenosine receptor A1 (Rattus norvegicus, UniProt P25099); assay: Displacement of [3H]DPCPX from adenosine A1 receptor in rat brain membranes; type: cell membranes
T4 sequence (P25099 whole entry): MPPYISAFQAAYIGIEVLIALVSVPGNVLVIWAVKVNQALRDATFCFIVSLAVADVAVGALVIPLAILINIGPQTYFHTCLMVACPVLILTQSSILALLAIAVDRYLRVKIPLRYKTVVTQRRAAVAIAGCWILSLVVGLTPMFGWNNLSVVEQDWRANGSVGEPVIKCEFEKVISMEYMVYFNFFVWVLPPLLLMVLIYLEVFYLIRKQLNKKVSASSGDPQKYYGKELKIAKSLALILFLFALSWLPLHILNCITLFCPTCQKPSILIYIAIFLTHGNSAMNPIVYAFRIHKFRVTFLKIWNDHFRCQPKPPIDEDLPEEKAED

[5] = target: T5, Adenosine receptor A3 (Homo sapiens, UniProt P0DMS8); assay: Displacement of [125I]AB-MECA from human adenosine A3 receptor expressed in HEK293 cells; type: cell-based
T5 sequence (P0DMS8 whole entry): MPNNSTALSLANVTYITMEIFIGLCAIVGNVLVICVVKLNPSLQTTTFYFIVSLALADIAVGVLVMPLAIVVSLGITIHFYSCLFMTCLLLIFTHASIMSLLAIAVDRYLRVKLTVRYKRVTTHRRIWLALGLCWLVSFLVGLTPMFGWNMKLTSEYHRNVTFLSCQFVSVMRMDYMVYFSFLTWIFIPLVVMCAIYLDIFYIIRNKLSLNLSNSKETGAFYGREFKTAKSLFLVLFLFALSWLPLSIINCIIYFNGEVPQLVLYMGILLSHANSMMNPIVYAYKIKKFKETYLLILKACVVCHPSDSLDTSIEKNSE

pKi [1]: < 5.00 | pKi [2]: 5.95 | pKi [3]: < 5.00 | pKi [4]: 5.74 | pKi [5]: < 5.00
Structure (SMILES): COc1ccc(CCCn2ncc3c2nc(N)n2nc(-c4ccco4)nc32)cc1
